Assay results reported in patent US20250195521A1 (Revolution Medicines, Inc., priority 2020, published 2025).

Legend:
[1] = biological target: KRAS G13D binding to BRAF RBD (Homo sapiens (Human), UniProt P01116+P62937, G13D); assay: Ras-Raf disruption/FRET/MOA assay, KRAS G13D; assay type: biochemical
Description: (§1) Note—The following protocol describes a procedure for monitoring disruption of K-Ras G12C(GMP-PNP) binding to BRAF^RBD by a compound of the invention. This protocol may also be executed substituting other Ras proteins or nucleotides.
(§2) The purpose of this biochemical assay was to measure the ability of test compounds to facilitate ternary complex formation between a nucleotide-loaded K-Ras isoform and Cyclophilin A; the resulting ternary complex disrupts binding to a BRAF^RBD construct, inhibiting K-Ras signaling through a RAF effector. Data is reported as IC50 values.
(§3) Compound was present in plate wells as a 10-point 3-fold dilution series starting at a final concentration of 30 μM. After incubation at 25° C. for 3 hours, a mixture of Anti-His Eu—W1024 and anti-GST allophycocyanin was then added to assay sample wells at final concentrations of 10 nM and 50 nM, respectively, and the reaction incubated for an additional 1.5 hours. […] Compounds that facilitate disruption of a K-Ras: RAF complex were identified as those eliciting a decrease in the TR-FRET ratio relative to DMSO control wells.

[2] = biological target: NRAS G12C binding to BRAF RBD (Homo sapiens (Human), UniProt P01111+P62937, G12C); assay: Ras-Raf disruption/FRET/MOA assay, NRAS G12C; assay type: biochemical
Description: as §1, §2, §3

NCI-H358 (K-Ras G12C) [3] = assay: CellTiter-Glo cell viability assay, NCI-H358; assay type: cell-based, human; settings: Homo sapiens, NCI-H358, 120 h, 5-day treatment; read-out: H358 Cell Viability assay data (K-Ras G12C, IC50)
Method in brief: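 Cells seeded, compound added directly to plates; day 5: plates to RT ~30 min, CellTiter-Glo luminescence; (sample/avg DMSO)*100; 4-parameter fit.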

[4] = biological target: K-Ras G12C(GMP-PNP) binding to BRAF RBD (Homo sapiens (Human), UniProt P01116+P62937, G12C); assay: Disruption of BRAF RBD interaction with K-Ras (FRET / MOA assay), K-Ras G12C; assay type: biochemical; settings: read-out: KRAS G12C FRET IC50
Method in brief: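 Cpd 10-pt 3-fold dilution, top 30 μM final; Ras/CypA/BRAF RBD mix 3 h, 25° C. Add anti-His Eu-W1024 10 nM + anti-GST APC 50 nM final, 1.5 h. Readout TR-FRET ratio decrease vs DMSO → IC50.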

[5] = system: K-Ras G12C (NCI-H358 cells); assay: Potency assay: pERK in NCI-H358 cells; assay type: cell-based, human; settings: Homo sapiens; NCI-H358 cells, 4 hours; read-out: pERK EC50 (H358 KRAS G12C)
Method in brief: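 Cells plated the day before were exposed for 4 h at 37° C, 5% CO2 to a 10-point, 3-fold DMSO dilution series (10 mM top stock), in duplicate. Phospho-ERK was read by AlphaLISA SureFire Ultra or by In-Cell Western with DRAQ5 DNA stain, and IC50 came from a 4-parameter sigmoidal fit.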

AsPC-1 (K-Ras G12D) [6] = assay: Potency assay: pERK; assay type: cell-based, human; settings: Homo sapiens, ASPC1, read-out: pERK EC50
Method in brief: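 Cells plated overnight, then exposed 4 h at 37 °C to 10-point 3-fold dilutions of compound, in duplicate. pERK read by AlphaLISA SureFire Ultra p-ERK1/2 lysate assay or by In-Cell Western (pERK antibody, DRAQ5 DNA normalisation). IC50 from 4-parameter sigmoidal fit of signal vs log concentration.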

NCI-H358 (K-Ras G12C) [7] = assay: CellTiter-Glo cell viability assay, H358; assay type: cell-based, human; settings: Homo sapiens, NCI-H358, 120 h, read-out: H358 Cell Viability IC50, K-Ras G12C, 5-day treatment
Method in brief: (§4)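 Cells seeded, compound added directly, 5-day exposure. Plates to RT ~30 min, CellTiter-Glo luminescence read. Normalized to DMSO avg (x100); 4-parameter logistic fit.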

AsPC-1 (K-Ras G12D) [8] = assay: CellTiter-Glo cell viability assay, AsPC-1; assay type: cell-based, human; settings: Homo sapiens, ASPC1, 120 h, read-out: AsPC-1 Cell Viability IC50
Method in brief: as §4

KRAS G13D = KRAS G13D (Homo sapiens (Human), UniProt P01116+P62937, G13D); assay: Ras-Raf disruption/FRET/MOA assay, KRAS G13D; assay type: biochemical
Method in brief: (§5)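 TR-FRET of nucleotide-loaded (GMP-PNP) His6-Ras (12.5 nM) binding to GST-BRAF RBD (50 nM) with Cyclophilin A (25 μM) in HEPES pH 7.3 buffer; 10-point 3-fold compound series from 30 μM, 3 h at 25 °C, then anti-His Eu/anti-GST APC 1.5 h. IC50 from decreased FRET ratio vs DMSO.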

KRAS G12S = KRAS G12S (Homo sapiens (Human), UniProt P01116+P62937, G12S); assay: Ras-Raf disruption/FRET/MOA assay, KRAS G12S; assay type: biochemical
Method in brief: as §5

KRAS G13C = KRAS G13C (Homo sapiens (Human), UniProt P01116+P62937, G13C); assay: Ras-Raf disruption/FRET/MOA assay, KRAS G13C; assay type: biochemical
Method in brief: as §5

KRAS G12V = KRAS G12V (Homo sapiens (Human), UniProt P01116+P62937, G12V); assay: Ras-Raf disruption/FRET/MOA assay, KRAS G12V; assay type: biochemical
Method in brief: as §5

KRAS G12D = KRAS G12D (Homo sapiens (Human), UniProt P01116+P62937, G12D); assay: Ras-Raf disruption/FRET/MOA assay, KRAS G12D; assay type: biochemical
Method in brief: as §5

KRAS WT = KRAS WT (Homo sapiens (Human), UniProt P01116+P62937); assay: Ras-Raf disruption/FRET/MOA assay, KRAS WT; assay type: biochemical
Method in brief: as §5

KRAS G12C = KRAS G12C (Homo sapiens (Human), UniProt P01116+P62937, G12C); assay: Ras-Raf disruption/FRET/MOA assay, KRAS G12C; assay type: biochemical
Method in brief: as §5

NRAS G12C = NRAS G12C (Homo sapiens (Human), UniProt P01111+P62937, G12C); assay: Ras-Raf disruption/FRET/MOA assay, NRAS G12C; assay type: biochemical
Method in brief: as §5

Chain of NRAS G12C binding to BRAF RBD (P01111 whole entry G12C): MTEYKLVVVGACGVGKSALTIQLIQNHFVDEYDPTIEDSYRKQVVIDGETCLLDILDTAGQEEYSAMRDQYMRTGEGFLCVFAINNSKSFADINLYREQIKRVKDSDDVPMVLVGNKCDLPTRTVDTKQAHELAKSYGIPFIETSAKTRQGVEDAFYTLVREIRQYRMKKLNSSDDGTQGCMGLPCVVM
Chain of NRAS G12C binding to BRAF RBD (P62937 whole entry): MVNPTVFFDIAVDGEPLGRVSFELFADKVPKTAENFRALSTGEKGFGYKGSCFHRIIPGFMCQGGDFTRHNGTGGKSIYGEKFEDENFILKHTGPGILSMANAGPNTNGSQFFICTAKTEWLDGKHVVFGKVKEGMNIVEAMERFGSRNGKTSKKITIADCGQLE
Chain of KRAS G13D binding to BRAF RBD (P01116 other isoform, or with tags, fused parts or gaps G13D): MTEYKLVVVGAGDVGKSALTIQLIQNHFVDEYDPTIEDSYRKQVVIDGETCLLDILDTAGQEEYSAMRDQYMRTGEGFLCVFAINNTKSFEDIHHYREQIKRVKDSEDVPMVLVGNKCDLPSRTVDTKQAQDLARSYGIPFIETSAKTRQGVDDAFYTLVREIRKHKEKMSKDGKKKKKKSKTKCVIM
Chain of KRAS G13D binding to BRAF RBD (P62937 whole entry): as the sequence (P62937 whole entry) above
Chain of K-Ras G12C(GMP-PNP) binding to BRAF RBD (P01116 other isoform, or with tags, fused parts or gaps G12C): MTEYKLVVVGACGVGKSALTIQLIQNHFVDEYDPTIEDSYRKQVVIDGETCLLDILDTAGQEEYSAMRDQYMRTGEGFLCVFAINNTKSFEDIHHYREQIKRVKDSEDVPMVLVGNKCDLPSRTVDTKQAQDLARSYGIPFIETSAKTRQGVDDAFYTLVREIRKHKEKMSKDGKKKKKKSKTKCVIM
Chain of K-Ras G12C(GMP-PNP) binding to BRAF RBD (P62937 whole entry): as the sequence (P62937 whole entry) above
Chain of NRAS G12C (P01111 whole entry G12C): as the sequence (P01111 whole entry G12C) above
Chain of NRAS G12C (P62937 whole entry): as the sequence (P62937 whole entry) above
Chain of KRAS G12C (P01116-2 other isoform, or with tags, fused parts or gaps G12C): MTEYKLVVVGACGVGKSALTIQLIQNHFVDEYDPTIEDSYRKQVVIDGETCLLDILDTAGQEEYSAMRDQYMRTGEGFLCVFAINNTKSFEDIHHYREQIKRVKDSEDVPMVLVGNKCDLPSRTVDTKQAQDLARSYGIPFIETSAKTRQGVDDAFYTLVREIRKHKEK
Chain of KRAS G12C (P62937 whole entry): as the sequence (P62937 whole entry) above
Chain of KRAS WT (P01116 other isoform, or with tags, fused parts or gaps): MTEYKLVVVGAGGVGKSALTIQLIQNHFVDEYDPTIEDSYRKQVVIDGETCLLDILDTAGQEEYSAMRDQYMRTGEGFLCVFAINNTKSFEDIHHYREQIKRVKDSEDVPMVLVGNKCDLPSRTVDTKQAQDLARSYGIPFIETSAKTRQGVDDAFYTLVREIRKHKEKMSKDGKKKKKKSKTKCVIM
Chain of KRAS WT (P62937 whole entry): as the sequence (P62937 whole entry) above
Chain of KRAS G12V (P01116 other isoform, or with tags, fused parts or gaps G12V): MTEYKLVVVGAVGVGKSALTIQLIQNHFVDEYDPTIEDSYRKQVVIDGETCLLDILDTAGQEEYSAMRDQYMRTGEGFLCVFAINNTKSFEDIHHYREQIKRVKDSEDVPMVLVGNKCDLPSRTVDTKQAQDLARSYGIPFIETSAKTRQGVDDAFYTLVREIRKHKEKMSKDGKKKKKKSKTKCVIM
Chain of KRAS G12V (P62937 whole entry): as the sequence (P62937 whole entry) above
Chain of KRAS G12D (P01116 other isoform, or with tags, fused parts or gaps G12D): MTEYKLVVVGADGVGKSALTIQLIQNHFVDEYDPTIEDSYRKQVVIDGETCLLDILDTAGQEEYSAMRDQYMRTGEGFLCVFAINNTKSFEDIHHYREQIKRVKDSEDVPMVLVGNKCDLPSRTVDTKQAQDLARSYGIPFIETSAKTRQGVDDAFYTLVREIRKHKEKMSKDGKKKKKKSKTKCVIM
Chain of KRAS G12D (P62937 whole entry): as the sequence (P62937 whole entry) above
Chain of KRAS G13D (P01116 other isoform, or with tags, fused parts or gaps G13D): as the sequence (P01116 other isoform, or with tags, fused parts or gaps G13D) above
Chain of KRAS G13D (P62937 whole entry): as the sequence (P62937 whole entry) above
Chain of KRAS G12S (P01116 other isoform, or with tags, fused parts or gaps G12S): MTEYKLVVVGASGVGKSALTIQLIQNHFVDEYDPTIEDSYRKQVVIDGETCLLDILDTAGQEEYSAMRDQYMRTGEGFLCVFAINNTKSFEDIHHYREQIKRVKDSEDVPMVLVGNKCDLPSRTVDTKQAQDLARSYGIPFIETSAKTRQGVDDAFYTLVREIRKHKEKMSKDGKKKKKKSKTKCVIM
Chain of KRAS G12S (P62937 whole entry): as the sequence (P62937 whole entry) above
Chain of KRAS G13C (P01116 other isoform, or with tags, fused parts or gaps G13C): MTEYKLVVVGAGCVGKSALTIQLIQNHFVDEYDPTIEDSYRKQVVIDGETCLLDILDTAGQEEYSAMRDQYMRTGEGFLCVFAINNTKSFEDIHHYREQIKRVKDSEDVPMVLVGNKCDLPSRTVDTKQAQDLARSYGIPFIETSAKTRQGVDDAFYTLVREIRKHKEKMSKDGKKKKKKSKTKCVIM
Chain of KRAS G13C (P62937 whole entry): as the sequence (P62937 whole entry) above

Row | SMILES | IC50 [1] | IC50 [2] | IC50 (NCI-H358 (K-Ras G12C) [3]) | IC50 [4] | further results
1 | C=CC(=O)N1CC[C@H](C(=O)N(C)[C@H](C(=O)N[C@H]2Cc3cc(O)cc(c3)-c3ccc4c(c3)c(c(-c3cccc(CN(C)C)c3)n4CC)CC(C)(C)COC(=O)[C@@H]3CCCN(N3)C2=O)C(C)C)C1 [Compound A106] | > 10000 nM | 1000 to 10000 nM | 100 to 1000 nM | – | –
2 | C=CC(=O)N1CC[C@H](C(=O)N(C)[C@H](C(=O)N[C@H]2Cc3cccc(c3)-c3ccc4c(c3)c(c(-c3cccnc3[C@H](C)OC)n4CC)CC(C)(C)COC(=O)[C@@H]3CCCN(N3)C2=O)C(C)C)C1 [Compound A114] | > 10000 nM | > 10000 nM | – | > 10000 nM | –
3 | C=CC(=O)N1CC[C@H](C(=O)N(C)[C@H](C(=O)N[C@H]2Cc3cc(O)cc(c3)-c3ccc4c(c3)c(c(-c3cccnc3COC)n4CC)CC(C)(C)COC(=O)[C@@H]3CCCN(N3)C2=O)C(C)C)C1 [Compound A137] | > 10000 nM | 100 to 1000 nM | > 10000 nM | – | –
4 | CCn1c(-c2cccnc2COC)c2c3cc(ccc31)-c1cc(C)cc(c1)C[C@H](NC(=O)[C@@H](C(C)C)N(C)C(=O)[C@H]1CCN(C(=O)C#CCN(C)C)C1)C(=O)N1CCC[C@H](N1)C(=O)OCC(C)(C)C2 [Compound A156] | 1000 to 10000 nM | 100 to 1000 nM | – | – | –
5 | CCn1c(-c2cccnc2COC)c2c3cc(ccc31)-c1cc(O)cc(c1)C[C@H](NC(=O)[C@H](C(C)C)N(C)C(=O)[C@H]1CCN(C(=O)/C=C\CN(C)C)C1)C(=O)N1CCC[C@H](N1)C(=O)OCC(C)(C)C2 [Compound A161] | 1000 to 10000 nM | 100 to 1000 nM | – | – | –
6 | CC#CC(=O)N1CC[C@H](C(=O)N(C)[C@H](C(=O)N[C@H]2Cc3cc(O)cc(c3)-c3ccc4c(c3)c(c(-c3cncnc3)n4CC)CC(C)(C)COC(=O)[C@@H]3CCCN(N3)C2=O)C(C)C)C1 [Compound A169] | > 10000 nM | 100 to 1000 nM | 100 to 1000 nM | 100 to 1000 nM | –
7 | C=CC(=O)N1CC[C@H](C(=O)N(C)[C@H](C(=O)NC2C[C@@H]3CN(CCO3)c3ccc4c(c3)c(c(-c3cccnc3COC)n4CC)CC(C)(C)COC(=O)[C@@H]3CCCN(N3)C2=O)C(C)C)C1 (stereo partly shown) [Compound A318] | > 10000 nM | > 10000 nM | > 10000 nM | > 10000 nM | –
8 | CCn1c(-c2cccnc2[C@H](C)OC)c2c3cc(ccc31)-c1cccc(c1)C[C@H](NC(=O)[C@H](C(C)C)N(C)C(=O)[C@H]1CCN(C(=O)C#C[C@@H]3CC(F)(F)CN3C)C1)C(=O)N1CCC[C@H](N1)C(=O)OCC(C)(C)C2 [Compound A526] | > 10000 nM | 10 to 100 nM | < 10 nM | 10 to 100 nM | –
9 | CCn1c(-c2cnccc2COC)c2c3cc(ccc31)-c1cc(O)cc(c1)C[C@H](NC(=O)[C@H](C(C)C)N(C)C(=O)CN(C)C(=O)[C@@H]1N[C@@H]1C1CC1)C(=O)N1CCC[C@H](N1)C(=O)OCC(C)(C)C2 [Example 103] | – | – | – | – | EC50 (AsPC-1 (K-Ras G12D) [6]): < 5000 nM; IC50 (NCI-H358 (K-Ras G12C) [7]): 100 to 1000 nM; IC50 (AsPC-1 (K-Ras G12D) [8]): 100 to 1000 nM; IC50 (KRAS G13D): 100 to 1000 nM; IC50 (KRAS G12S): 10 to 100 nM; IC50 (KRAS G13C): 10 to 100 nM; IC50 (KRAS G12V): 10 to 100 nM; IC50 (KRAS G12D): 10 to 100 nM; IC50 (KRAS WT): 10 to 100 nM; IC50 (KRAS G12C): 10 to 100 nM; IC50 (NRAS G12C): 10 to 100 nM

More lines, main results first:

Row | IC50 [1] | IC50 [2] | IC50 (NCI-H358 (K-Ras G12C) [3]) | IC50 [4] | SMILES | further results
10 | > 10000 nM | 10 to 100 nM | – | – | CCn1c(-c2cccnc2[C@H](C)OC)c2c3cc(ccc31)-c1csc(n1)C[C@H](NC(=O)[C@H](C(C)C)N1CC[C@]3(CCN(C(=O)C#CC(C)(C)N(C)C)C3)C1=O)C(=O)N1CCC[C@H](N1)C(=O)OCC(C)(C)C2 (single isomer, unassigned) [Compound A425] | –
11 | > 10000 nM | 1000 to 10000 nM | – | – | CC#CC(=O)N1CC[C@]2(CCN([C@H](C(=O)N[C@H]3Cc4cccc(c4)-c4ccc5c(c4)c(c(-c4cccnc4[C@H](C)OC)n5CC)CC(C)(C)COC(=O)[C@@H]4CCCN(N4)C3=O)C(C)C)C2=O)C1 (single isomer, unassigned) [Compound A426] | –
12 | > 10000 nM | 100 to 1000 nM | – | – | CCn1c(-c2cccnc2[C@H](C)OC)c2c3cc(ccc31)-c1cc(cc(C(F)F)c1)C[C@H](NC(=O)[C@@H](COC1CN(C(=O)C#CC(C)(C)N(C)C)C1)C(C)C)C(=O)N1CCC[C@H](N1)C(=O)OCC(C)(C)C2 [Compound A404] | –
13 | 100 to 1000 nM | 10 to 100 nM | < 10 nM | 10 to 100 nM | C=CC(=O)N1CC[C@H](C(=O)N(C)[C@H](C(=O)N[C@H]2Cc3csc(n3)-c3ccc4c(c3)c(c(-c3cc(N5CCN(C)CC5)cnc3[C@H](C)OC)n4CC(C)(F)F)CC(C)(C)COC(=O)[C@@H]3CCCN(N3)C2=O)C(C)C)C1 [Compound A410] | EC50 [5]: < 5000 nM
14 | > 10000 nM | – | – | – | CCn1c(-c2cccnc2[C@H](C)OC)c2c3cc(ccc31)-c1cccc(c1)C[C@H](NC(=O)[C@H](C(C)C)N1CC[C@]3(CCN(C(=O)C#CC(C)(C)N(C)C)C3)C1=O)C(=O)N1CCC[C@H](N1)C(=O)OCC(C)(C)C2 [Compound A414] | –
15 | 1000 to 10000 nM | 10 to 100 nM | < 10 nM | 10 to 100 nM | CCn1c(-c2cccnc2[C@H](C)OC)c2c3cc(ccc31)-c1cc(C(F)F)cc(n1)C[C@H](NC(=O)[C@H](C1CCCC1)N(C)C(=O)[C@H]1CCN(C(=O)C#CC(C)(C)N3CCC3)C1)C(=O)N1CCC[C@H](N1)C(=O)OCC(C)(C)C2 [Compound A456] | –
16 | > 10000 nM | 100 to 1000 nM | – | – | CCn1c(-c2cccnc2[C@H](C)OC)c2c3cc(ccc31)-c1cccc(c1)C[C@H](NC(=O)[C@H](C(C)C)N(C)C(=O)[C@H]1CCN(C(=O)C#CC3CCO3)C1)C(=O)N1CC(Br)C[C@H](N1)C(=O)OCC(C)(C)C2 (stereo partly shown) [Compound A508] | –
17 | 1000 to 10000 nM | 100 to 1000 nM | < 10 nM | 100 to 1000 nM | CC#CC(=O)N1CC[C@]2(CCC([C@H](C(=O)N[C@H]3Cc4nc(cs4)-c4ccc5c(c4)c(c(-c4cccnc4[C@H](C)OC)n5CC)CC(C)(C)COC(=O)[C@@H]4CCCN(N4)C3=O)C(C)C)C2=O)C1 (stereo partly shown) [Compound A511] | –
